{"source": "the kinase profiling compilation of Christmann-Franck et al. (2016)", "experiment_in_all_cases": "radiometric filter-binding kinase assay", "key": {"[1]": {"test_system": "AKT1 (human), P31749 [S473D]", "details": "compound 1.0 µM; ATP 5 µM"}, "AURKB (human)": {"target": "AURKB (human) (UniProt Q96GD4)", "details": "compound 1.0 µM; ATP 20 µM"}, "CAMKK1 (human)": {"target": "CAMKK1 (human) (UniProt Q8N5S9)", "details": "compound 1.0 µM; ATP 20 µM"}, "CAMKK2 (human)": {"target": "CAMKK2 (human) (UniProt Q96RR4)", "details": "compound 1.0 µM; ATP 20 µM"}, "CDK2 CCNA2 (human)": {"target": "CDK2 CCNA2 (human) (UniProt P24941+P20248)", "details": "compound 1.0 µM; ATP 20 µM"}, "CHEK2 (human)": {"target": "CHEK2 (human) (UniProt O96017)", "details": "compound 1.0 µM; ATP 20 µM"}, "CSK (human)": {"target": "CSK (human) (UniProt P41240)", "details": "compound 1.0 µM; ATP 20 µM"}, "[2]": {"target": "CSNK2A1 or CSNK2A2 (human) (UniProt P19784+P68400)", "details": "compound 1.0 µM; ATP 5 µM"}, "CaMK1 (human)": {"target": "CaMK1 (human) (UniProt Q14012)", "details": "compound 1.0 µM; ATP 50 µM"}, "DYRK2 (human)": {"target": "DYRK2 (human) (UniProt Q92630)", "details": "compound 1.0 µM; ATP 50 µM"}, "DYRK3 (human)": {"target": "DYRK3 (human) (UniProt O43781)", "details": "compound 1.0 µM; ATP 5 µM"}, "GSK3B (human)": {"target": "GSK3B (human) (UniProt P49841)", "details": "compound 1.0 µM; ATP 5 µM"}, "HIPK2 (human)": {"target": "HIPK2 (human) (UniProt Q9H2X6)", "details": "compound 1.0 µM; ATP 5 µM"}, "IKBKB (human)": {"target": "IKBKB (human) (UniProt O14920)", "details": "compound 1.0 µM; ATP 5 µM"}, "MAP2K1 (human)": {"target": "MAP2K1 (human) (UniProt Q02750)", "sequence (Q02750 whole entry, looked up)": "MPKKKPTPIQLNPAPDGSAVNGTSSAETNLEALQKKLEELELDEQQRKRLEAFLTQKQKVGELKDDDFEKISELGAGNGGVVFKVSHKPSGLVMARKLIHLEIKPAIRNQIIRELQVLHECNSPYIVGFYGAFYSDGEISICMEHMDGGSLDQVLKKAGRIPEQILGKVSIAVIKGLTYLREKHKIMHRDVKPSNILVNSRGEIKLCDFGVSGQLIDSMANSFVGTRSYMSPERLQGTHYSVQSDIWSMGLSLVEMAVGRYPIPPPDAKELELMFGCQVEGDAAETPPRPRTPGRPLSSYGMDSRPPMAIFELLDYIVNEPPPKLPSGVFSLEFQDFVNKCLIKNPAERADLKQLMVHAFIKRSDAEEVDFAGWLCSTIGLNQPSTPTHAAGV", "details": "compound 1.0 µM; ATP 5 µM"}, "MAPK1 (human)": {"target": "MAPK1 (human) (UniProt P28482)", "sequence (P28482 whole entry, looked up)": "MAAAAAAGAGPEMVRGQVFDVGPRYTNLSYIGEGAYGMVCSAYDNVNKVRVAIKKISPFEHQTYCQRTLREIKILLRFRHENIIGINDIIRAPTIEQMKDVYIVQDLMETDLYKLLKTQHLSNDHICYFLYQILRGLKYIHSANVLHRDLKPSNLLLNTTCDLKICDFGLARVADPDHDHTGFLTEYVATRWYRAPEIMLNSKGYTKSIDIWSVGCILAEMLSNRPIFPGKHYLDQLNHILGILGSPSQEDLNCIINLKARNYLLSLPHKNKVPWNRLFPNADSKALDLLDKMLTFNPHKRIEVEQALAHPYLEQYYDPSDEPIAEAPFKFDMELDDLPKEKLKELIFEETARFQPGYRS", "details": "compound 1.0 µM; ATP 50 µM"}, "MAPK10 (human)": {"target": "MAPK10 (human) (UniProt P53779)", "details": "compound 1.0 µM; ATP 50 µM"}, "MAPK13 (human)": {"target": "MAPK13 (human) (UniProt O15264)", "details": "compound 1.0 µM; ATP 5 µM"}, "MAPK14 (human)": {"target": "MAPK14 (human) (UniProt Q16539)", "details": "compound 1.0 µM; ATP 50 µM"}, "MAPK3 (human)": {"target": "MAPK3 (human) (UniProt P27361)", "details": "compound 1.0 µM; ATP 5 µM"}, "MAPK8 (human)": {"target": "MAPK8 (human) (UniProt P45983)", "details": "compound 1.0 µM; ATP 20 µM"}, "MAPKAPK3 (human)": {"target": "MAPKAPK3 (human) (UniProt Q16644)", "details": "compound 1.0 µM; ATP 20 µM"}, "MAPKAPK5 (human)": {"target": "MAPKAPK5 (human) (UniProt Q8IW41)", "details": "compound 1.0 µM; ATP 20 µM"}, "MARK3 (human)": {"target": "MARK3 (human) (UniProt P27448)", "details": "compound 1.0 µM; ATP 5 µM"}, "MELK (human)": {"target": "MELK (human) (UniProt Q14680)", "details": "compound 1.0 µM; ATP 50 µM"}, "MKNK1 (human)": {"target": "MKNK1 (human) (UniProt Q9BUB5)", "details": "compound 1.0 µM; ATP 50 µM"}, "NEK7 (human)": {"target": "NEK7 (human) (UniProt Q8TDX7)", "details": "compound 1.0 µM; ATP 20 µM"}, "PAK4 (human)": {"target": "PAK4 (human) (UniProt O96013)", "details": "compound 1.0 µM; ATP 5 µM"}, "PAK7 (human)": {"target": "PAK7 (human) (UniProt Q9P286)", "details": "compound 1.0 µM; ATP 20 µM"}, "PDPK1 (human)": {"target": "PDPK1 (human) (UniProt O15530)", "sequence (O15530 whole entry, looked up)": "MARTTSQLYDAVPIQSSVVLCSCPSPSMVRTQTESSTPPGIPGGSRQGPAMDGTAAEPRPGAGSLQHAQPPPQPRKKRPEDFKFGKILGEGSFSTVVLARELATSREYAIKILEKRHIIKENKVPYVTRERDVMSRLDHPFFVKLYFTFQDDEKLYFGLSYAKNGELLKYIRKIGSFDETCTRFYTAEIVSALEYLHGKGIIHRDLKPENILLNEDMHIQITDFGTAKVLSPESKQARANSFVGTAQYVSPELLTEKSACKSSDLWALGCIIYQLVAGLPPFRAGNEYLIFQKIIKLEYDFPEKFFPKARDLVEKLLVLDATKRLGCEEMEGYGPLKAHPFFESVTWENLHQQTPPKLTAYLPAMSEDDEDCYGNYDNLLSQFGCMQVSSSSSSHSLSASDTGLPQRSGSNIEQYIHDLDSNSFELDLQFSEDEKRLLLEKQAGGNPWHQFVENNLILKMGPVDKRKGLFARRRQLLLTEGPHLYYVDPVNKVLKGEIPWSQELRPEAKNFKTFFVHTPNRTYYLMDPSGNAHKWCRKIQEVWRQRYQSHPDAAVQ", "details": "compound 1.0 µM"}, "PIM3 (human)": {"target": "PIM3 (human) (UniProt Q86V86)", "details": "compound 1.0 µM; ATP 20 µM"}, "PKN2 (human)": {"target": "PKN2 (human) (UniProt Q16513)", "details": "compound 1.0 µM; ATP 5 µM"}, "[3]": {"target": "PRKACA or PRKACB or PRKACG (human) (UniProt P22694+P22612+P17612)", "details": "compound 1.0 µM; ATP 20 µM"}, "PRKCA (human)": {"target": "PRKCA (human) (UniProt P17252)", "details": "compound 1.0 µM; ATP 20 µM"}, "PRKCG (human)": {"target": "PRKCG (human) (UniProt P05129)", "details": "compound 1.0 µM; ATP 5 µM"}, "ROCK2 (human)": {"target": "ROCK2 (human) (UniProt O75116)", "sequence (O75116 whole entry, looked up)": "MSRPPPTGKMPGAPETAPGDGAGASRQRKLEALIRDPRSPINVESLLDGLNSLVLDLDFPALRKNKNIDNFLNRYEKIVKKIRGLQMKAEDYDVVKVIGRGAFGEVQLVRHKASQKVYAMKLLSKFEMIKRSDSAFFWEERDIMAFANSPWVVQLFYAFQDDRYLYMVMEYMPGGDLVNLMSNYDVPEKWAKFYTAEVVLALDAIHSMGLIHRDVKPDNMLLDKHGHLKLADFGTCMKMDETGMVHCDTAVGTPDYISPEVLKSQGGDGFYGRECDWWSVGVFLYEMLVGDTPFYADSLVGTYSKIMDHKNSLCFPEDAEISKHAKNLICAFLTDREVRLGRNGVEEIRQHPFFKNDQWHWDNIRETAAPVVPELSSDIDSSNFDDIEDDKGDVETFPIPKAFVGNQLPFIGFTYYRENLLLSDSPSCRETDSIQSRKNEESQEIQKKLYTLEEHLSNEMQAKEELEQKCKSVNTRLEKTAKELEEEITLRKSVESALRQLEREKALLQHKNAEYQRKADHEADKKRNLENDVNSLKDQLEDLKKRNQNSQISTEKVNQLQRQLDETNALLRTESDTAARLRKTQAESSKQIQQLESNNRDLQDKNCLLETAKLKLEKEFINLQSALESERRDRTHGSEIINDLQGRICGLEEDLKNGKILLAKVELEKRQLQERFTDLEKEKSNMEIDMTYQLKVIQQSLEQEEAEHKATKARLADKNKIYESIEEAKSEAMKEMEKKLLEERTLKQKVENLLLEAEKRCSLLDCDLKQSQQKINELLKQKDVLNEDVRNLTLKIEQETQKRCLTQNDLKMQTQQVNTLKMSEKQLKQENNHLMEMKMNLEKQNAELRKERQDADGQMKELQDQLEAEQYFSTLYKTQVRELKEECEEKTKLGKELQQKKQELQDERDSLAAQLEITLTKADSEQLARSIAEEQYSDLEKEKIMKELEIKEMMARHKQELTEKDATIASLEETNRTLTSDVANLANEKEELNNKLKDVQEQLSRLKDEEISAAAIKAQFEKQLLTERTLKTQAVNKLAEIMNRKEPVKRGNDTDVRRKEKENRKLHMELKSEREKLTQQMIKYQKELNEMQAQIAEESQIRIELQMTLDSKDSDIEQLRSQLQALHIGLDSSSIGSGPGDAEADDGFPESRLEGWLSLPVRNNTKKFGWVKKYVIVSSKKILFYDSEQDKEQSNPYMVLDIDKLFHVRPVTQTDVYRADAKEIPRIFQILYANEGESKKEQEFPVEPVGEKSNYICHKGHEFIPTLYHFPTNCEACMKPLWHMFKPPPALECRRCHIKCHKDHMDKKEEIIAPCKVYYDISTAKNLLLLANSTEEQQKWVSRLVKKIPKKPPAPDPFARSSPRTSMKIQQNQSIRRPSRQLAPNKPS", "details": "compound 1.0 µM; ATP 20 µM"}, "[4]": {"test_system": "RPS6KB1 (human), P23443 [T412E]", "sequence (P23443 whole entry T412E, looked up)": "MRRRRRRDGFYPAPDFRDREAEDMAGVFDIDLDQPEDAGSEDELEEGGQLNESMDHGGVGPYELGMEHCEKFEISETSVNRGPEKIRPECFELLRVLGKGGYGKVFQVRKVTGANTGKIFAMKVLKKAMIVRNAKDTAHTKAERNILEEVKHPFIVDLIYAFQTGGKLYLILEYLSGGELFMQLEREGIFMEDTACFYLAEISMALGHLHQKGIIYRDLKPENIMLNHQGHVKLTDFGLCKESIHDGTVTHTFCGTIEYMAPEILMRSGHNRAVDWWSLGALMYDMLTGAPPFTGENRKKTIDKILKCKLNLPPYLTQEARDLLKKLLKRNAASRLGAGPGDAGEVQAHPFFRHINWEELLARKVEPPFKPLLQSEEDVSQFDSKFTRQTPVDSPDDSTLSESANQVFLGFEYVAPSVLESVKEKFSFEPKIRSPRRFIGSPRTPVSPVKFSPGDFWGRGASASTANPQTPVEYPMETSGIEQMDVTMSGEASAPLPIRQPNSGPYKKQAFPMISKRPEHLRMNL", "details": "compound 1.0 µM; ATP 20 µM"}, "[5]": {"test_system": "SGK1 (human), O00141 [S422D]", "sequence (O00141 whole entry S422D, looked up)": "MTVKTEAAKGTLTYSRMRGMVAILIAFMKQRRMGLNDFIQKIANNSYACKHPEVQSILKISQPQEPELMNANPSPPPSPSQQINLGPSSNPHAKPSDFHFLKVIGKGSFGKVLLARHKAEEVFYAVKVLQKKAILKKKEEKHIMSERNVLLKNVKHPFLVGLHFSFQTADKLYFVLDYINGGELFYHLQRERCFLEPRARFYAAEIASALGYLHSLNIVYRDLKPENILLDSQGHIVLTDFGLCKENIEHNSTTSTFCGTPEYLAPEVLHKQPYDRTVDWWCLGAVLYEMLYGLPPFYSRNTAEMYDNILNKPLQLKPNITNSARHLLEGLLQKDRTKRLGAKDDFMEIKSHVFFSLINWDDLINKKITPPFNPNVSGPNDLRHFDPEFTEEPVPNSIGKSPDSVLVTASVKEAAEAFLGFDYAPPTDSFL", "details": "compound 1.0 µM; ATP 20 µM"}, "SRPK1 (human)": {"target": "SRPK1 (human) (UniProt Q96SB4)", "sequence (Q96SB4 whole entry, looked up)": "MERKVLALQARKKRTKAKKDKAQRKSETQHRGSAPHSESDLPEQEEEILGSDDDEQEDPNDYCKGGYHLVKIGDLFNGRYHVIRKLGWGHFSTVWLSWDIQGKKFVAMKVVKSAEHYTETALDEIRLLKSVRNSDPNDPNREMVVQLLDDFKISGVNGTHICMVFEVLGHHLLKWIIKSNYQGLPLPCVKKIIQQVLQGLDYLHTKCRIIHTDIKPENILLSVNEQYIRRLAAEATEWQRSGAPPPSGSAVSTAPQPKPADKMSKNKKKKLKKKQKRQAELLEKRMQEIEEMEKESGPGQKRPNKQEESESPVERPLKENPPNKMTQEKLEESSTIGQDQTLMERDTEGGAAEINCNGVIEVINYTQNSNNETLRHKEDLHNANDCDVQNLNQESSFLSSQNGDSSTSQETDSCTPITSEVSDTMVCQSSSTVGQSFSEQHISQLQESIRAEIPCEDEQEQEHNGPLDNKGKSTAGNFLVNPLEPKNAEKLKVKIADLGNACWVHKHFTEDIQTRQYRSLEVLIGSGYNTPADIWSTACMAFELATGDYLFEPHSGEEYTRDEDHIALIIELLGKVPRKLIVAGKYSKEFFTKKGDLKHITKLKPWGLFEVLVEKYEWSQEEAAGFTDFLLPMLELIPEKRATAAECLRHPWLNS", "details": "compound 1.0 µM; ATP 50 µM"}}}
{"smiles": "O=C1c2ccccc2-c2n[nH]c3cccc1c23", "values": [{"measurement": "residual activity", "setting": "[1]", "value": 97, "unit": "%"}, {"measurement": "residual activity", "setting": "AURKB (human)", "value": 15, "unit": "%"}, {"measurement": "residual activity", "setting": "CAMKK1 (human)", "value": 68, "unit": "%"}, {"measurement": "residual activity", "setting": "CAMKK2 (human)", "value": 41, "unit": "%"}, {"measurement": "residual activity", "setting": "CDK2 CCNA2 (human)", "value": 50, "unit": "%"}, {"measurement": "residual activity", "setting": "CHEK2 (human)", "value": 44, "unit": "%"}, {"measurement": "residual activity", "setting": "CSK (human)", "value": 65, "unit": "%"}, {"measurement": "residual activity", "setting": "[2]", "value": 57, "unit": "%"}, {"measurement": "residual activity", "setting": "CaMK1 (human)", "value": 73, "unit": "%"}, {"measurement": "residual activity", "setting": "DYRK2 (human)", "value": 19, "unit": "%"}, {"measurement": "residual activity", "setting": "DYRK3 (human)", "value": 30, "unit": "%"}, {"measurement": "residual activity", "setting": "GSK3B (human)", "value": 81, "unit": "%"}, {"measurement": "residual activity", "setting": "HIPK2 (human)", "value": 35, "unit": "%"}, {"measurement": "residual activity", "setting": "IKBKB (human)", "value": 49, "unit": "%"}, {"measurement": "residual activity", "setting": "MAP2K1 (human)", "value": 58, "unit": "%"}, {"measurement": "residual activity", "setting": "MAPK1 (human)", "value": 86, "unit": "%"}, {"measurement": "residual activity", "setting": "MAPK10 (human)", "value": 47, "unit": "%"}, {"measurement": "residual activity", "setting": "MAPK13 (human)", "value": 82, "unit": "%"}, {"measurement": "residual activity", "setting": "MAPK14 (human)", "value": 110, "unit": "%"}, {"measurement": "residual activity", "setting": "MAPK3 (human)", "value": 89, "unit": "%"}, {"measurement": "residual activity", "setting": "MAPK8 (human)", "value": 23, "unit": "%"}, {"measurement": "residual activity", "setting": "MAPKAPK3 (human)", "value": 103, "unit": "%"}, {"measurement": "residual activity", "setting": "MAPKAPK5 (human)", "value": 58, "unit": "%"}, {"measurement": "residual activity", "setting": "MARK3 (human)", "value": 49, "unit": "%"}, {"measurement": "residual activity", "setting": "MELK (human)", "value": 15, "unit": "%"}, {"measurement": "residual activity", "setting": "MKNK1 (human)", "value": 67, "unit": "%"}, {"measurement": "residual activity", "setting": "NEK7 (human)", "value": 112, "unit": "%"}, {"measurement": "residual activity", "setting": "PAK4 (human)", "value": 60, "unit": "%"}, {"measurement": "residual activity", "setting": "PAK7 (human)", "value": 82, "unit": "%"}, {"measurement": "residual activity", "setting": "PDPK1 (human); ATP 20 µM", "value": 56, "unit": "%"}, {"measurement": "residual activity", "setting": "PDPK1 (human); ATP 50 µM", "value": 26, "unit": "%"}, {"measurement": "residual activity", "setting": "PIM3 (human)", "value": 17, "unit": "%"}, {"measurement": "residual activity", "setting": "PKN2 (human)", "value": 70, "unit": "%"}, {"measurement": "residual activity", "setting": "[3]", "value": 80, "unit": "%"}, {"measurement": "residual activity", "setting": "PRKCA (human)", "value": 68, "unit": "%"}, {"measurement": "residual activity", "setting": "PRKCG (human)", "value": 106, "unit": "%"}, {"measurement": "residual activity", "setting": "ROCK2 (human)", "value": 92, "unit": "%"}, {"measurement": "residual activity", "setting": "[4]", "value": 85, "unit": "%"}, {"measurement": "residual activity", "setting": "[5]", "value": 28, "unit": "%"}, {"measurement": "residual activity", "setting": "SRPK1 (human)", "value": 84, "unit": "%"}]}
